Results from ChEMBL document CHEMBL2390830 (Eur J Med Chem, 2013).
Where a name gives a salt, the structure may show the parent alone.

Key:
[1] = target: T1, 5-hydroxytryptamine receptor 1A (Rattus norvegicus, UniProt P19327); assay: Displacement of [3H]8-OH-DPAT from 5-HT1A receptor in Wistar rat cerebral hippocampus membrane after 10 mins; format: tissue-based; conditions: read-out: Ki(app)
T1 sequence (P19327 whole entry): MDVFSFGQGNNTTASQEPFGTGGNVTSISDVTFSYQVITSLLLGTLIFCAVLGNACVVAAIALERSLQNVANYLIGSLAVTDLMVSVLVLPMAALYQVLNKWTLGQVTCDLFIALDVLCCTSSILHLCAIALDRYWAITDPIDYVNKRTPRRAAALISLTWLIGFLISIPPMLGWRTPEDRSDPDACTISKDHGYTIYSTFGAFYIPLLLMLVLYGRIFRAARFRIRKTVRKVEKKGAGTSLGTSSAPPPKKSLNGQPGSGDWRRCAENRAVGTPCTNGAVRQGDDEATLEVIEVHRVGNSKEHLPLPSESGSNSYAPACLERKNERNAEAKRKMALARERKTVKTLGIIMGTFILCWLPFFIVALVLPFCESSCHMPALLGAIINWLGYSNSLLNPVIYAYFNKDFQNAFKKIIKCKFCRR

[2] = target: T2, Muscarinic acetylcholine receptor M5 (Homo sapiens, UniProt P08912); assay: Binding affinity to human muscarinic M5 receptor by radioligand displacement assay
T2 sequence (P08912 whole entry): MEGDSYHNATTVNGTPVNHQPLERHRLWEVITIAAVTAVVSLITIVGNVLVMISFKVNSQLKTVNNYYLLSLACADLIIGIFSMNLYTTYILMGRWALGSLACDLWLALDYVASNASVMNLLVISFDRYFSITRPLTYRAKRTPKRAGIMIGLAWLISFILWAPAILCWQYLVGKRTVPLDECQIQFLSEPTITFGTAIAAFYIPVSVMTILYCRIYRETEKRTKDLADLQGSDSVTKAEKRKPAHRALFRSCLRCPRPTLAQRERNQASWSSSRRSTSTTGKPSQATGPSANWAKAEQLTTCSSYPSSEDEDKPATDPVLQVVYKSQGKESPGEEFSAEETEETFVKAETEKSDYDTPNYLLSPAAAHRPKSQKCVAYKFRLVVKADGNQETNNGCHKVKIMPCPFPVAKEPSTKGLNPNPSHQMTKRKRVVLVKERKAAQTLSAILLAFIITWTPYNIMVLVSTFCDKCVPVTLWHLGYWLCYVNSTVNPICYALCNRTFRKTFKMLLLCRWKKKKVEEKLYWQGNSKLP

[3] = Binding affinity to peripheral BZD receptor (unknown origin) by radioligand displacement assay; design: species or system Homo sapiens
[4] = Binding affinity to human PACAP receptor by radioligand displacement assay
[5] = Binding affinity to GABA-gated chloride channel (unknown origin) by radioligand displacement assay; design: species or system Homo sapiens
[6] = Binding affinity to somatostatin receptor (unknown origin) by radioligand displacement assay; design: species or system Homo sapiens
[7] = Binding affinity to P2X receptor (unknown origin) by radioligand displacement assay; design: species or system Homo sapiens
[8] = target: T3, 5-hydroxytryptamine receptor 2C (Homo sapiens, UniProt P28335); assay: Binding affinity to human 5-HT2C receptor by radioligand displacement assay
T3 sequence (P28335 whole entry): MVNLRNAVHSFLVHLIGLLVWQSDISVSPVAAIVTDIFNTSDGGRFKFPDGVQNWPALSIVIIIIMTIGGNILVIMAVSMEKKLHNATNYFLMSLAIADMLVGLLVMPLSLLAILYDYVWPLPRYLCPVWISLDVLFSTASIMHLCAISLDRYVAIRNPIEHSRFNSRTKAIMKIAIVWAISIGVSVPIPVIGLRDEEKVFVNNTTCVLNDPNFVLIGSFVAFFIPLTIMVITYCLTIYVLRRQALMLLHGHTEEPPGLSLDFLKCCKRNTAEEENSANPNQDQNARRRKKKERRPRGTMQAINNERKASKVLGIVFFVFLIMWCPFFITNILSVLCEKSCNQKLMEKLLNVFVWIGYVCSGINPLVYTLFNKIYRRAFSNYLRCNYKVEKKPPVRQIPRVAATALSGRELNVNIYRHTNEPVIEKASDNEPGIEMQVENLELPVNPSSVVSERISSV

[9] = Binding affinity to sodium channel site 2 (unknown origin) by radioligand displacement assay; design: species or system Homo sapiens
[10] = Binding affinity to human PCP receptor by radioligand displacement assay
[11] = Binding affinity to P2Y receptor (unknown origin) by radioligand displacement assay; design: species or system Homo sapiens
[12] = target: Voltage-gated L-type calcium channel (Homo sapiens, UniProt Q13936+Q13698+Q01668+O60840); assay: Binding affinity to L-Ca2+ channel verapamil site (unknown origin) by radioligand displacement assay

## COc1ccccc1N1CCN(CCCCCN2Cc3nc4ccccc4cc3C2=O)CC1
[1]
  Ki: 20 nM

## C[N+]1(C)CCC(OC(=O)C(c2ccccc2)c2ccccc2)CC1 [4-DAMP]
[2]
  IC50: 0.45 nM
  Ki: 0.22 nM

## COc1ccccc1N1CCN(CCCCN2Cc3nc4ccccc4cc3C2=O)CC1
[1]
  Ki: 15 nM

## O=C1c2c(ccc3ccccc23)CN1CCCCCN1CCN(c2cccc(Cl)c2Cl)CC1
[1]
  Ki: 490 nM

## O=C1c2cc3ccccc3nc2CN1CCCCCN1CCN(c2cccc(Cl)c2Cl)CC1
[1]
  Ki: 58 nM

## CCC(C)N(C)C(=O)c1cc2ccccc2c(-c2ccccc2Cl)n1 (centres undefined) [PK-11195]
[3]
  IC50: 0.99 nM
  Ki: 0.89 nM

## CC[C@H](C)[C@H](NC(=O)CNC(=O)[C@H](CC(=O)O)NC(=O)[C@H](CO)NC(=O)[C@@H](N)Cc1cnc[nH]1)C(=O)N[C@@H](Cc1ccccc1)C(=O)N[C@H](C(=O)N[C@@H](CC(=O)O)C(=O)N[C@@H](CO)C(=O)N[C@@H](Cc1ccc(O)cc1)C(=O)N[C@@H](CO)C(=O)N[C@@H](CCCNC(=N)N)C(=O)N[C@@H](Cc1ccc(O)cc1)C(=O)N[C@@H](CCCNC(=N)N)C(=O)N[C@@H](CCCCN)C(=O)N[C@@H](CCC(N)=O)C(=O)N[C@@H](CCSC)C(=O)N[C@@H](C)C(=O)N[C@H](C(=O)N[C@@H](CCCCN)C(=O)N[C@@H](CCCCN)C(=O)N[C@@H](Cc1ccc(O)cc1)C(=O)N[C@@H](CC(C)C)C(=O)N[C@@H](C)C(=O)N[C@@H](C)C(=O)N[C@H](C(=O)N[C@@H](CC(C)C)C(=O)NCC(=O)N[C@@H](CCCCN)C(=O)N[C@@H](CCCNC(=N)N)C(=O)N[C@@H](Cc1ccc(O)cc1)C(=O)N[C@@H](CCCCN)C(=O)N[C@@H](CCC(N)=O)C(=O)N[C@@H](CCCNC(=N)N)C(=O)N[C@H](C(=O)N[C@@H](CCCCN)C(=O)N[C@@H](CC(N)=O)C(=O)N[C@@H](CCCCN)C(N)=O)C(C)C)C(C)C)C(C)C)[C@@H](C)O
[4]
  IC50: 0.057 nM
  Ki: 0.049 nM

## C=C(C)[C@@H]1[C@H]2OC(=O)[C@@H]1[C@]1(O)C[C@H]3O[C@]34C(=O)O[C@H]2[C@]14C [PICROTOXININ]
[5]
  IC50: 120 nM
  Ki: 96 nM

## C[C@H](N)C(=O)NCC(=O)N[C@H]1CSSC[C@@H](C(=O)O)NC(=O)[C@H](CO)NC(=O)[C@H]([C@@H](C)O)NC(=O)[C@H](Cc2ccccc2)NC(=O)[C@H]([C@@H](C)O)NC(=O)[C@H](CCCCN)NC(=O)[C@H](Cc2c[nH]c3ccccc23)NC(=O)[C@H](Cc2ccccc2)NC(=O)[C@H](Cc2ccccc2)NC(=O)[C@H](CC(N)=O)NC(=O)[C@H](CCCCN)NC1=O [SOMATOSTATIN]
[6]
  IC50: 0.33 nM
  Ki: 0.2 nM

## Nc1ncnc2c1ncn2[C@@H]1O[C@H](COP(=O)(O)CP(=O)(O)OP(=O)(O)O)[C@@H](O)[C@H]1O [DIPHOSPHOMETHYLPHOSPHONIC ACID ADENOSYL ESTER]
[7]
  IC50: 2.1 nM
  Ki: 0.97 nM

## COc1ccccc1N1CCN(CCCN2Cc3ccc4ccccc4c3C2=O)CC1
[1]
  Ki: 46 nM

## COc1cc(OC)c(C(=O)CCCCN2CCC3(CC2)NC(=O)NC3=O)cc1NS(=O)(=O)c1ccc(C(F)(F)F)cc1 [RS-102,221]
[8]
  IC50: 2.7 nM
  Ki: 0.91 nM

## COc1ccccc1N1CCN(CCCCN2Cc3c(Cl)nc4ccccc4c3C2=O)CC1
[1]
  Ki: 17 nM

## O=C1c2c(ccc3ccccc23)CN1CCCCN1CCN(c2cccc(Cl)c2Cl)CC1
[1]
  Ki: 31 nM

## COc1ccccc1N1CCN(CCCCN2Cc3ccc4ccccc4c3C2=O)CC1
[1]
  Ki: 13 nM

## O=C1c2c(c(Cl)nc3ccccc23)CN1CCCCCN1CCN(c2cccc(Cl)c2Cl)CC1
[1]
  Ki: 878 nM

## COc1ccc(C(=O)O[C@H]2CC[C@@]3(C)[C@@H]4CC[C@H]5[C@]6(O)C[C@H](O)[C@@]7(O)[C@@H](CN8C[C@@H](C)CC[C@H]8[C@@]7(C)O)[C@]6(O)C[C@@]53O[C@]24O)cc1OC [VERATRIDINE]
[9]
  IC50: 5200 nM
  Ki: 4700 nM

## C[C@]12N[C@H](Cc3ccccc31)c1ccccc12 [DIZOCILPINE MALEATE]
[10]
  IC50: 4.3 nM
  Ki: 2.4 nM

## Nc1ncnc2c1ncn2[C@H]1C[C@H](O)[C@@H](COP(O)(=S)OP(=O)(O)OP(=O)(O)O)O1 (some centres undefined)
[11]
  IC50: 45 nM
  Ki: 23 nM

## COc1ccccc1N1CCN(CCCN2Cc3nc4ccccc4cc3C2=O)CC1
[1]
  Ki: 104 nM

## COc1ccc(CCN(C)CCCC(C#N)(c2cc(OC)c(OC)c(OC)c2)C(C)C)cc1OC (centres undefined) [GALLOPAMIL]
[12]
  IC50: 1.1 ×10⁻⁸ M
  Ki: 5.4 ×10⁻⁹ M

## O=C1c2c(c(Cl)nc3ccccc23)CN1CCCCN1CCN(c2cccc(Cl)c2Cl)CC1
[1]
  Ki: 31 nM

## O=C1c2cc3ccccc3nc2CN1CCCCN1CCN(c2cccc(Cl)c2Cl)CC1
[1]
  Ki: 30 nM
